# Experimental data from patent US11207325B2, “Triazolopyrimidine compounds and uses thereof” (Novartis AG, priority 2014, dated 2021).
# System: H3K27 methylation in G401 cell
# Experiment: ELISA (H3K27 methylation) assay
# Format: cell-based
# Details: Homo sapiens, G-401; ELISA Qualified assay (H3K27 methylation); read-out: (c) IC50 (μM), ELISA Qualified
# Text: ELISA (H3K27 Methylation) Assay
row,IC50 [µM],Structure (SMILES)
1,0.0274,"CC(c1ccc(-c2cnc(NCc3cccc4c3CCO4)n3cnnc23)cc1)N1CCCC1 (stereo not shown) [Example 14, N-((2,3-dihydrobenzofuran-4-yl)methyl)-8-(4-(1-(pyrrolidin-1-yl)ethyl)phenyl)-[1,2,4]triazolo[4,3-c]pyrimidin-5-amine]"
2,0.0344,"Fc1ccc2c(c1CNc1ncc(-c3cncnc3C(F)F)c3nncn13)CCO2 [Example 191, 8-(4-(difluoromethyl)pyrimidin-5-yl)-N-((5-fluoro-2,3-dihydrobenzofuran-4-yl)methyl)-[1,2,4]triazolo[4,3-c]pyrimidin-5-amine]"
3,0.0257,"Fc1ccccc1-c1cnc(NCc2c(F)ccc3c2CCO3)n2cnnc12 [Example 94, N-((5-fluoro-2,3-dihydrobenzofuran-4-yl)methyl)-8-(2-fluorophenyl)-[1,2,4]triazolo[4,3-c]pyrimidin-5-amine]"
4,0.0273,"Fc1ccc2c(c1CNc1ncc(-c3ccncc3Cl)c3nncn13)CCO2 [Example 162, 8-(3-chloropyridin-4-yl)-N-((5-fluoro-2,3-dihydrobenzofuran-4-yl)methyl)-[1,2,4]triazolo[4,3-c]pyrimidin-5-amine]"
5,0.0227,"CS(=O)(=O)Nc1ccc(-c2cnc(NCc3c(F)ccc4c3CCO4)n3cnnc23)cc1F [Example 39, N-(2-fluoro-4-(5-(((5-fluoro-2,3-dihydrobenzofuran-4-yl)methyl)amino)-[1,2,4]triazolo[4,3-c]pyrimidin-8-yl)phenyl)methanesulfonamide]"
6,0.0177,"Cc1ccncc1-c1cnc(NCc2c(F)ccc3c2CCO3)n2cnnc12 [Example 118, N-((5-fluoro-2,3-dihydrobenzofuran-4-yl)methyl)-8-(4-methylpyridin-3-yl)-[1,2,4]triazolo[4,3-c]pyrimidin-5-amine]"
7,0.0777,"Cc1cnc(C(F)(F)F)cc1-c1cnc(NCc2c(F)ccc3c2CCO3)n2cnnc12 [Example 184, N-((5-fluoro-2,3-dihydrobenzofuran-4-yl)methyl)-8-(5-methyl-2-(trifluoromethyl)pyridin-4-yl)-[1,2,4]triazolo[4,3-c]pyrimidin-5-amine]"
8,0.181,"FC1(F)CCN(CCc2ccc(-c3cnc(NCc4cccc5c4CCO5)n4cnnc34)cn2)C1 [Example 100, 8-(6-(2-(3,3-difluoropyrrolidin-1-yl)ethyl)pyridin-3-yl)-N-((2,3-dihydrobenzofuran-4-yl)methyl)-[1,2,4]triazolo[4,3-c]pyrimidin-5-amine]"
9,0.0634,"Cc1ncccc1-c1cnc(NCc2c(F)ccc3c2C(O)CO3)n2cnnc12 (stereo not shown) [Example 242, 5-fluoro-4-(((8-(2-methylpyridin-3-yl)-[1,2,4]triazolo[4,3-c]pyrimidin-5-yl)amino)methyl)-2,3-dihydrobenzofuran-3-ol]"
10,0.0043,"COc1ccc(-c2cnc(NCc3c(F)ccc4c3CCO4)n3cnnc23)cn1 [Example 142, N-((5-fluoro-2,3-dihydrobenzofuran-4-yl)methyl)-8-(6-methoxypyridin-3-yl)-[1,2,4]triazolo[4,3-c]pyrimidin-5-amine]"
11,0.0149,"Cc1cc(OC(F)F)ncc1-c1cnc(NCc2c(F)ccc3c2CCO3)n2cnnc12 [Example 197, 8-(6-(difluoromethoxy)-4-methylpyridin-3-yl)-N-((5-fluoro-2,3-dihydrobenzofuran-4-yl)methyl)-[1,2,4]triazolo[4,3-c]pyrimidin-5-amine]"
12,0.0052,"Cc1c(-c2cnc(NCc3c(F)ccc4c3CCO4)n3cnnc23)cnn1CCO [Example 189, 2-(4-(5-(((5-fluoro-2,3-dihydrobenzofuran-4-yl)methyl)amino)-[1,2,4]triazolo[4,3-c]pyrimidin-8-yl)-5-methyl-1H-pyrazol-1-yl)ethanol]"
13,0.0424,"CN(C)Cc1ccc(-c2cnc(NCc3c(F)ccc4c3CCO4)n3cnnc23)cc1 [Example 23, 8-(4-((dimethylamino)methyl)phenyl)-N-((5-fluoro-2,3-dihydrobenzofuran-4-yl)methyl)-[1,2,4]triazolo[4,3-c]pyrimidin-5-amine]"
14,0.707,"O=C1CCCN1c1cncc(-c2cnc(NCc3cccc4c3CCO4)n3cnnc23)c1 [Example 87, 1-(5-(5-(((2,3-dihydrobenzofuran-4-yl)methyl)amino)-[1,2,4]triazolo[4,3-c]pyrimidin-8-yl)pyridin-3-yl)pyrrolidin-2-one]"
15,0.0382,"Cc1cnn(-c2cnc(NCc3c(F)ccc4c3CCO4)n3cnnc23)c1 [Example 239, N-((5-fluoro-2,3-dihydrobenzofuran-4-yl)methyl)-8-(4-methyl-1H-pyrazol-1-yl)-[1,2,4]triazolo[4,3-c]pyrimidin-5-amine]"
16,0.139,"c1ccc(-c2cnc(NCc3cccc4c3CCO4)n3cnnc23)cc1 [Example 13, N-((2,3-dihydrobenzofuran-4-yl)methyl)-8-phenyl-[1,2,4]triazolo[4,3-c]pyrimidin-5-amine]"
17,0.107,"Cc1nn(C(C)C)cc1-c1cnc(NCc2cccc3c2CCO3)n2cnnc12 [Example 82, N-((2,3-dihydrobenzofuran-4-yl)methyl)-8-(1-isopropyl-3-methyl-1H-pyrazol-4-yl)-[1,2,4]triazolo[4,3-c]pyrimidin-5-amine]"

row,IC50 [µM],Structure (SMILES)
1,0.0097,"CN1CCN(C(=O)c2ccc(-c3cnc(NCc4c(F)ccc5c4CCO5)n4cnnc34)cc2)CC1 [Example 72, (4-(5-(((5-fluoro-2,3-dihydrobenzofuran-4-yl)methyl)amino)-[1,2,4]triazolo[4,3-c]pyrimidin-8-yl)phenyl)(4-methylpiperazin-1-yl)methanone]"
2,0.0037,"Cc1cc(S(C)(=O)=O)ccc1-c1cnc(NCc2c(F)ccc3c2CCO3)n2cnnc12 [Example 128, N-((5-fluoro-2,3-dihydrobenzofuran-4-yl)methyl)-8-(2-methyl-4-(methylsulfonyl)phenyl)-[1,2,4]triazolo[4,3-c]pyrimidin-5-amine]"
3,2.7,"CS(=O)(=O)CCOc1cncc(-c2cnc(NCc3cccc4c3CCO4)n3cnnc23)c1 [Example 106, N-((2,3-dihydrobenzofuran-4-yl)methyl)-8-(5-(2-(methylsulfonyl)ethoxy)pyridin-3-yl)-[1,2,4]triazolo[4,3-c]pyrimidin-5-amine]"
4,0.581,"c1cc(CNc2ncc(-c3cncc(N4CCNCC4)c3)c3nncn23)c2c(c1)OCC2 [Example 77, N-((2,3-dihydrobenzofuran-4-yl)methyl)-8-(5-(piperazin-1-yl)pyridin-3-yl)-[1,2,4]triazolo[4,3-c]pyrimidin-5-amine]"
5,0.0036,"Cc1c(-c2cnc(NCc3c(F)ccc4c3CCO4)n3cnnc23)cnn1C(C)C [Example 188, N-((5-fluoro-2,3-dihydrobenzofuran-4-yl)methyl)-8-(1-isopropyl-5-methyl-1H-pyrazol-4-yl)-[1,2,4]triazolo[4,3-c]pyrimidin-5-amine]"
6,0.0072,"Cc1cc(-c2cnc(NCc3c(F)ccc4c3CCO4)n3cnnc23)ccn1 [Example 116, N-((5-fluoro-2,3-dihydrobenzofuran-4-yl)methyl)-8-(2-methylpyridin-4-yl)-[1,2,4]triazolo[4,3-c]pyrimidin-5-amine]"
7,0.329,"CC1CCCN1c1ccc(-c2cnc(NCc3cccc4c3CCO4)n3cnnc23)cn1 (stereo not shown) [Example 96, N-((2,3-dihydrobenzofuran-4-yl)methyl)-8-(6-(2-methylpyrrolidin-1-yl)pyridin-3-yl)-[1,2,4]triazolo[4,3-c]pyrimidin-5-amine]"
8,2.42,"Cc1cc(-c2cnc(NCc3cccc4c3CCO4)n3cnnc23)cnc1N1CCNC(=O)C1 [Example 105, 4-(5-(5-(((2,3-dihydrobenzofuran-4-yl)methyl)amino)-[1,2,4]triazolo[4,3-c]pyrimidin-8-yl)-3-methylpyridin-2-yl)piperazin-2-one]"
9,0.0022,"CCc1cc(C)c(-c2cnc(NCc3c(F)ccc4c3CCO4)n3cnnc23)cn1 [Example 224, 8-(6-ethyl-4-methylpyridin-3-yl)-N-((5-fluoro-2,3-dihydrobenzofuran-4-yl)methyl)-[1,2,4]triazolo[4,3-c]pyrimidin-5-amine]"
10,0.0016,"Cc1nc(S(C)(=O)=O)ccc1-c1cnc(NCc2c(F)ccc3c2CCO3)n2cnnc12 [Example 139, N-((5-fluoro-2,3-dihydrobenzofuran-4-yl)methyl)-8-(2-methyl-6-(methylsulfonyl)pyridin-3-yl)-[1,2,4]triazolo[4,3-c]pyrimidin-5-amine]"
11,0.415,"CS(=O)(=O)c1ccc(-c2cnc(NCc3cccc4c3CCO4)n3cnnc23)cn1 [Example 28, N-((2,3-dihydrobenzofuran-4-yl)methyl)-8-(6-(methylsulfonyl)pyridin-3-yl)-[1,2,4]triazolo[4,3-c]pyrimidin-5-amine]"
12,0.0073,"Cc1nn(C(C)C)c(C)c1-c1cnc(NCc2cccc3c2CCO3)n2cnnc12 [Example 153, N-((2,3-dihydrobenzofuran-4-yl)methyl)-8-(1-isopropyl-3,5-dimethyl-1H-pyrazol-4-yl)-[1,2,4]triazolo[4,3-c]pyrimidin-5-amine]"
13,1.34,O=S(=O)(NCCO)c1ccc(-c2cnc(NCc3cccc4c3CCO4)n3cnnc23)cc1 [Example 40]
14,0.002,"Cc1cn(-c2cnc(NCc3c(F)ccc4c3CCO4)n3cnnc23)cn1 [Example 233, N-((5-fluoro-2,3-dihydrobenzofuran-4-yl)methyl)-8-(4-methyl-1H-imidazol-1-yl)-[1,2,4]triazolo[4,3-c]pyrimidin-5-amine]"
15,0.0261,"Cc1nc(N)ccc1-c1cnc(NCc2c(F)ccc3c2CCO3)n2cnnc12 [Example 156, 8-(6-amino-2-methylpyridin-3-yl)-N-((5-fluoro-2,3-dihydrobenzofuran-4-yl)methyl)-[1,2,4]triazolo[4,3-c]pyrimidin-5-amine]"
16,0.378,"O=C(c1ccc(-c2cnc(NCc3cccc4c3CCO4)n3cnnc23)cn1)N1CCOCC1 [Example 68, (5-(5-(((2,3-dihydrobenzofuran-4-yl)methyl)amino)-[1,2,4]triazolo[4,3-c]pyrimidin-8-yl)pyridin-2-yl)(morpholino)methanone]"
17,0.0241,"Cc1cc(-c2cnc(NCc3c(F)ccc4c3CCO4)n3cnnc23)c(C)cn1 [Example 194, 8-(2,5-dimethylpyridin-4-yl)-N-((5-fluoro-2,3-dihydrobenzofuran-4-yl)methyl)-[1,2,4]triazolo[4,3-c]pyrimidin-5-amine]"
